Test results published in EP0558245A1, “Heterobicyclic compounds as antagogists of alpha-1 adrenergic and SHT1A receptors” (priority 1992, dated 1993).
Where two headings read alike, the source gives them in different places.

Assays:
[1] = Acute toxicity in mice after intraperitoneal and oral administration; conditions: mouse, in vivo, female albino Swiss mice, mortality recorded 7 days after administration
Procedure: Male Sprague Dawley rats [Crl: CD' BR] of 200-300 g b.w., female Albino Swiss mice [Crl: CD-1 (ICR) BR] 20-30 g b.w., and male Beagle dogs (10-12 kg b.w.) were obtained from Charles River, Italy and Nossan (Correzzana, Milan, Italy), respectively. Animals were housed with free access to food and water and maintained on forced light-dark cycle at 22-24°C until the day of experiments.
The acute toxicity of synthesized compounds was evaluated in female albino Swiss mice after intraperitoneal and oral administration. Four logarithmic scaled doses of the compounds were dissolved or suspended in 0.5% Methocel and administered in a volume of 10 ml/kg to groups of 4 mice/dose. Mortality was recorded 7 days after the administration. Data analysis: the LD₅₀ values and their fiducial limits were calculated according to the method of Weil (Biometrics, 8, 249, 1952).

[2] = target: T1, 5HT1A receptors (Rattus norvegicus, UniProt P19327); assay: [3H]8-OH-DPAT binding (5HT1A receptors), rat hippocampus membranes
T1 construct: Rat hippocampi were homogenized; from tissue; host or cells: rat hippocampus membranes
T1 sequence (P19327 1-422): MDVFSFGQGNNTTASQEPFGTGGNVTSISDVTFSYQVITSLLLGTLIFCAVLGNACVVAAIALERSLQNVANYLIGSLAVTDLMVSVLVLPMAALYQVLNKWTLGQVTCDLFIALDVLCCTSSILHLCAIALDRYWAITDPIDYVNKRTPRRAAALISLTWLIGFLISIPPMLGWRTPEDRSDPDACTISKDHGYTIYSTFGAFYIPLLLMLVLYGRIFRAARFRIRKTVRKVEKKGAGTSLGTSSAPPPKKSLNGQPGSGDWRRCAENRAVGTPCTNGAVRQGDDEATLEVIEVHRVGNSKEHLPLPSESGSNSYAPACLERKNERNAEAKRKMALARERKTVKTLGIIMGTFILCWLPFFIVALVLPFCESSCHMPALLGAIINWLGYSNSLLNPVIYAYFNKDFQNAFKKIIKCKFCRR
Procedure: Rat hippocampi were homogenized in 50 volumes of original wet weight of ice-cold 50 mM Tris-HCl buffer pH 7.4. The homogenates were centrifuged at 48,000 x g for 10 minutes, and the pellets were resuspended in the same volume of ice-cold buffer, incubated for 10 minutes at 37°C, centrifuged and resuspended two more times. The final pellets obtained were resuspended in the same volume of buffer and incubated according to the conditions reported in the table below.
(§1) The incubations were terminated after the appropriate time (see table) by rapid filtration through Whatman GF/B filters using a Brandel cell harvester. The filters were washed twice with 15 ml of ice-cold buffer (see table). The radioactivity retained on the filters was determined by liquid scintillation counting. Nonspecific binding (which amounted generally to 10-30%) was evaluated by adding high concentrations of the specific displacers (see table). All the compounds were initially tested at 1x10⁻⁶ M concentration, and in the presence of significant displacing activity, a complete competition curve was generated (down to a concentration of 10⁻¹¹ M). All the samples were run in triplicate.
The competition curves were always analyzed (to evaluate the IC₅₀ values) by non linear curve fitting of the logistic equation according to the method reported by De Lean et al. (Am. J. Physiol., 235, E97, 1978), utilizing the ALLFIT program [publically available from the National Institutes of Health (N.I.H.) Bethesda, Maryland, USA] written for the IBM PC.

[3] = target: α₁ receptors; assay: [3H]prazosin binding (α1 receptors), rat cerebral cortex membranes; conditions: rat cerebral cortex crude membranes, [3H]prazosin 0.35 nM, 25°C 30 min; read-out: Receptor Binding IC50 (nM) α1
Procedure: Rat cerebral cortices were homogenized in 50 volumes of original wet weight of ice-cold 50 mM Tris-HCl buffer pH 7.4. The homogenates were centrifuged at 48,000 x g for 10 minutes, and the pellets were resuspended in the same volume of ice-cold buffer, centrifuged and resuspended two more times. The final pellets obtained were resuspended in the same volume of buffer and incubated according to the conditions reported in the table below.
as §1

[4] = ip, intraperitoneal, read-out: Acute Toxicity in Mice LD50 (mg/kg) i.p.
[5] = oral, read-out: Acute Toxicity in Mice LD50 (mg/kg) p.o.
[6] = rat hippocampus crude membranes, [3H]8-OH-DPAT 1.0 nM, 25°C 30 min, read-out: Receptor Binding IC50 (nM) 5-HT1a

Row | SMILES | LD50 at 168 h [1, 4] | LD50 at 168 h [1, 5] | IC50 [2, 6] | IC50 [3] | IC50 [2]
1 | COc1ccccc1N1CCN(CCN(C)S(=O)(=O)c2cccc3c(=O)c(C)c(-c4ccccc4)oc23)CC1.Cl [Example 49, 8-{N-methyl-2-[4-(2-methoxyphenyl)-1-piperazinyl]-ethylsulphamoyl}-3-methyl-4-oxo-2-phenyl-4H-1-benzopyran hydrochloride] | 432 mg/kg | > 2000 mg/kg | 9 nM | 152 nM | 
2 | COc1ccccc1N1CCN(CCCN(C(N)=O)c2cccc3c(=O)c(C)c(-c4ccccc4)oc23)CC1 [Example 50, 8-{N-carbamoyl-3-[4-(2-methoxyphenyl)-1-piperazinyl]-propylamino}-3-methyl-4-oxo-2-phenyl-4H-1-benzopyran methanesulphonate hemihydrate] | 211 mg/kg | 299 mg/kg | 300 nM | 39 nM | 
3 | Cc1c(-c2ccccc2)oc2c(C(=O)NCCCNCC3COc4ccccc4O3)cccc2c1=O (stereo not drawn) [Example 52, 8-{3-[2-(1,4-benzodioxanyl)methylamino]propylcarbamoyl}-3-methyl-4-oxo-2-phenyl-4H-1-benzopyran methansulphonate] | 127 mg/kg | 224 mg/kg | 2 nM | 89 nM | 
4 | COc1ccccc1N1CCN(CCCCc2cccc3c(=O)c(C)c(-c4ccccc4)oc23)CC1.CS(=O)(=O)O [Example 53, 8-{4-[4-(2-methoxyphenyl)-1-piperazinyl]-butyl}-3-methyl-4-oxo-2-phenyl-4H-1-benzopyran methanesulphonate] | 127 mg/kg | 1020 mg/kg | 41 nM | 7 nM | 
5 | CS(=O)(=O)O.Cc1c(-c2ccccc2)oc2c(C(=O)NCCCN3CCC(c4ccccc4)CC3)cccc2c1=O [Example 54, 8-[3-(4-phenyl-1-piperidinyl)-propylcarbamoyl]-3-methyl-4-oxo-2-phenyl-4H-1-benzopyran methansulphonate] | 106 mg/kg | 421 mg/kg | 143 nM | 35 nM | 
6 | CS(=O)(=O)O.Cc1c(-c2ccccc2)oc2c(C(=O)NCCCN3CCC(c4ccccc4)(c4ccccc4)CC3)cccc2c1=O [Example 55, 8-[3-(4,4-diphenyl-1-piperidinyl)-propylcarbamoyl]-3-methyl-4-oxo-2-phenyl-4H-1-benzopyran methansulphonate] | 128 mg/kg | ≥ 2000 mg/kg |  | 291 nM | > 1000 nM
7 | Cc1c(-c2ccccc2)oc2c(C(=O)NCCCN3CCC(C(=O)c4ccc(F)cc4)CC3)cccc2c1=O [Example 56, 8-{3-[4-(4-fluorobenzoyl)-1-piperidinyl]-propyl-carbamoyl}-3-methyl-4-oxo-2-phenyl-4H-1-benzopyran] | > 500 mg/kg |  | 748 nM | 25 nM | 
8 | Cc1c(-c2ccccc2)oc2c(C(=O)NCCCN3CCC(n4c(=O)[nH]c5ccccc54)CC3)cccc2c1=O [Example 57, 8-{3-[4-(2-oxo-1-benzimidazolinyl)-1-piperidinyl]-propylcarbamoyl-}-3-methyl-4-oxo-2-phenyl-4H-1-benzopyran] | 500 mg/kg | > 2000 mg/kg | > 1000 nM | 69 nM | 
9 | CS(=O)(=O)O.Cc1c(-c2ccccc2)oc2c(C(=O)NCCCN3CCN(c4ncccn4)CC3)cccc2c1=O [Example 58, 8-{3-[4-(2-pyrimidinyl)-1-piperazinyl]-propylcarbamoyl}-3-methyl-4-oxo-2-phenyl-4H-1-benzopyran methanesulphonate] | 258 mg/kg | 508 mg/kg | 126 nM | ≥ 1000 nM | 
10 | Cc1c(-c2ccccc2)oc2c(C(=O)NCCCN3CCN(c4ccccc4O)CC3)cccc2c1=O [Example 59, 8-{3-[4-(2-hydroxyphenyl)-1-piperazinyl]-propylcarbamoyl}-3-methyl-4-oxo-2-phenyl-4H-1-benzopyran] | > 500 mg/kg | 278 mg/kg | 9 nM | 5 nM | 
11 | COc1ccccc1N1CCN(CCCCNC(=O)c2cccc3c(=O)c(C)c(-c4ccccc4)oc23)CC1.CS(=O)(=O)O [Example 60, 8-{4-[4-(2-methoxyphenyl)-1-piperazinyl]-butylcarbamoyl}-3-methyl-4-oxo-2-phenyl-4H-1-benzopyran methansulphonate] | 203 mg/kg | 329 mg/kg | 45 nM | 25 nM | 
12 | COc1ccccc1N1CCN(CCCNS(=O)(=O)c2cccc3c(=O)c(C)c(-c4ccccc4)oc23)CC1.CS(=O)(=O)O [Example 61, 8-{3-[4-(2-methoxyphenyl)-1-piperazinyl]-propylsulphamoyl}-3-methyl-4-oxo-2-phenyl-4H-1-benzopyran methanesulphonate] | 315 mg/kg | 592 mg/kg | 11 nM | 36 nM | 
13 | COc1ccccc1OCCN(C)CCCNC(=O)c1cccc2c(=O)c(C)c(-c3ccccc3)oc12.Cl [Example 62, 8-{3-[N-methyl-2-(2-methoxyphenoxy)-ethylamino]-propylcarbamoyl}-3-methyl-4-oxo-2-phenyl-4H-1-benzopyran hydrochloride] | 128 mg/kg | 344 mg/kg | 278 nM | 252 nM | 
14 | COc1ccccc1N1CCN(CCC(=O)N(C)c2cccc3c(=O)c(C)c(-c4ccccc4)oc23)CC1.CS(=O)(=O)O [Example 63, 8-{N-methyl-3-[4-(2-methoxyphenyl)-1-piperazinyl]-propionamido}-3-methyl-4-oxo-2-phenyl-4H-1-benzopyran methanesulphonate] | 309 mg/kg | 479 mg/kg | 99 nM | 194 nM | 
15 | COc1ccccc1N1CCN(CCOC(=O)Cc2cccc3c(=O)c(C)c(-c4ccccc4)oc23)CC1.Cl.Cl [Example 66, 8-{2-[4-(2-methoxyphenyl)-1-piperazinyl]-ethoxycarbonylmethyl}-3-methyl-4-oxo-2-phenyl-4H-1-benzopyran dihydrochloride] |  | 601 mg/kg | 56 nM | 57 nM | 
16 | COc1ccccc1N1CCN(CCCCNS(=O)(=O)c2cccc3c(=O)c(C)c(-c4ccccc4)oc23)CC1.CS(=O)(=O)O.CS(=O)(=O)O [Example 67, 8-{4-[4-(2-methoxyphenyl)-1-piperazinyl]-butylsulphamoyl}-3-methyl-4-oxo-2-phenyl-4H-1-benzopyran dimethanesulphonate] | 508 mg/kg | 1870 mg/kg | 4 nM | 4 nM | 
17 | COc1ccccc1N1CCN(CCCC(=O)Nc2cccc3c(=O)c(C)c(-c4ccccc4)oc23)CC1 [Example 69, 8-{4-[4-(2-methoxyphenyl)-1-piperazinyl]-butyramido}-3-methyl-4-oxo-2-phenyl-4H-1-benzopyran methanesulphonate hemihydrate] | 344 mg/kg |  | 87 nM | 16 nM | 
18 | COc1ccccc1N1CCN(CCO/N=C/c2cccc3c(=O)c(C)c(-c4ccccc4)oc23)CC1 [Example 70, E-8-{2-[4-(2-methoxyphenyl)-1-piperazinyl]-ethoxyimino-methyl}-3-methyl-4-oxo-2-phenyl-4H-1-benzopyran] | > 500 mg/kg | 1870 mg/kg | 85 nM | 53 nM | 
19 | COc1ccccc1N1CCN(CCNC(=O)/C=C/c2cccc3c(=O)c(C)c(-c4ccccc4)oc23)CC1 [Example 72, E-8-<2-{2-[4-(2-methoxyphenyl)-1-piperazinyl]-ethylcarbamoyl}-ethenyl>-3-methyl-4-oxo-2-phenyl-4H-1-benzopyran methanesulphonate 1.2 H₂0] | 479 mg/kg | > 2000 mg/kg | 111 nM | 145 nM | 
20 | COc1ccccc1N1CCN(CCCC[S+]([O-])c2cccc3c(=O)c(C)c(-c4ccccc4)oc23)CC1.CS(=O)(=O)O (stereo not drawn) [Example 73, 8-{4-[4-(2-methoxyphenyl)-1-piperazinyl]-butylsulphinyl}-3-methyl-4-oxo-2-phenyl-4H-1-benzopyran methanesulphonate] | 202 mg/kg | 462 mg/kg | 89 nM | 6 nM | 
21 | COc1ccccc1N1CCN(CCOC(=O)/C=C/c2cccc3c(=O)c(C)c(-c4ccccc4)oc23)CC1 [Example 79, (E)-8-<2-{2-[4-(2-methoxyphenyl)-1-piperazinyl]-ethoxycarbonyl}-ethenyl>-3-methyl-4-oxo-2-phenyl-4H-1-benzopyran methanesulphonate] | > 500 mg/kg | > 2000 mg/kg | 141 nM | 77 nM | 
